Experimental data as given in publication PMC6803074 (Experimental hematology, 2019).

Tests used:
Assay in all cases: cell proliferation assay
Type in all cases: cell-based
BCR-ABL1 [1] = conditions: BCR-ABL1-positive cells; proliferation read-out; stated gain
BCR-ABL1 [2] = conditions: BCR-ABL1-positive cells; proliferation read-out; stated gain; remark: listed apart in the source
BCR-ABL1 [3] = conditions: BCR-ABL1-positive cells; proliferation read-out; stated gain; remark: listed apart in the source
BCR-ABL1 [4] = conditions: BCR-ABL1-positive cells; proliferation read-out

SMILES: Cc1ccc(C(=O)NNC(=O)c2c(C)cccc2Cl)cc1C#Cc1cnc2ccccc2c1 [K0706]
- IC50 (BCR-ABL1 [1]): 165 nM
- IC50 (BCR-ABL1 [2]): 1967 nM
- IC50 (BCR-ABL1 [3]): 154 nM
- IC50 (BCR-ABL1 [4]): 7 nM
